Data: patent publication US10494364B2, “Cathepsin K inhibitors and application thereof” (SUNSHINE LAKE PHARMA CO., LTD., priority 2015, dated 2019)

How the values were obtained:
Assay type in all cases: biochemical
human cathepsin S = human cathepsin S (Homo sapiens, UniProt P25774); assay: Assay of cathepsin S inhibitory activity in vitro; conditions: IC50 against human cathepsin S; substrate Z-VVR-AMC 20 μM; 25° C.; read-out: Cat-S
Protocol: Assay Method of Cathepsin S Inhibitory Activity In Vitro
0.25 ng/L was the final concentration of Cathepsin S in the enzyme reaction, and Z-VVR-AMC with the final concentration of 20 μM was added into the reaction system as substrate, in the reaction system the test compound and enzyme had been incubated at 25° C. for 15 min.

human cathepsin B = human cathepsin B (Homo sapiens, UniProt P07858); assay: Assay of cathepsin B inhibitory activity in vitro; conditions: IC50 against human cathepsin B; substrate Z-Phe-Arg-AMC 10 μM; 25° C.; read-out: Cat-B
Protocol: Assay Method of Cathepsin B Inhibitory Activity In Vitro
0.01 ng/μL was the final concentration of Cathepsin B in the enzyme reaction, and Z-Phe-Arg-AMC with the final concentration of 10 μM was added into the reaction system as substrate, in the reaction system the test compound and enzyme had been incubated at 25° C. for 15 min.

human cathepsin L = human cathepsin L (Homo sapiens, UniProt P07711); assay: Assay of cathepsin L inhibitory activity in vitro; conditions: IC50 against human cathepsin L; substrate Z-Phe-Arg-AMC 10 μM; 25° C.; read-out: Cat-L
human cathepsin L, sequence (P07711 114-333): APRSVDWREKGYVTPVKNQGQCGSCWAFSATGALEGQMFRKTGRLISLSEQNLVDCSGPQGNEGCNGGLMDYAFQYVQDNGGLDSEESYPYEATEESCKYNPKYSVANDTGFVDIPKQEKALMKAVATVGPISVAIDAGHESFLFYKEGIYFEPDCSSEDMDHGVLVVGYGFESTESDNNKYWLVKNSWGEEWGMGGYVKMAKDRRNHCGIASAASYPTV
Protocol: Assay Method of Cathepsin L Inhibitory Activity In Vitro
0.01 ng/μL was the final concentration of Cathepsin L in the enzyme reaction, and Z-Phe-Arg-AMC with the final concentration of 10 μM was added into the reaction system as substrate, in the reaction system the test compound and enzyme had been incubated at 25° C. for 15 min.

human cathepsin K = target: T1, human cathepsin K (Homo sapiens, UniProt P43235); assay: Assay of cathepsin K inhibitory activity in vitro; conditions: IC50 against human cathepsin K; substrate Z-Phe-Arg-AMC 10 μM; 25° C.; read-out: Cat-K
T1 sequence (P43235 115-329): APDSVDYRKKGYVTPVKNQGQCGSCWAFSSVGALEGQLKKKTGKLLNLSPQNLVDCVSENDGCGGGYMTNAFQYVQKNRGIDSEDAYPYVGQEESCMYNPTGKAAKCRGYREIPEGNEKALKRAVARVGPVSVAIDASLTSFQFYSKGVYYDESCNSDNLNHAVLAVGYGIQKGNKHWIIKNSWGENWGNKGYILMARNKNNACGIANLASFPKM
Protocol: Assay Method of Cathepsin K Inhibitory Activity In Vitro
Using 45000-fold diluted cathepsin K solution and 10 μM Z-Phe-Arg-AMC as substrate, the test compound and cathepsin K solution were incubated at 25° C. for 15 min in a 15 μL reaction system according to the optimized experimental condition.

human cathepsin S, sequence (P25774 115-331): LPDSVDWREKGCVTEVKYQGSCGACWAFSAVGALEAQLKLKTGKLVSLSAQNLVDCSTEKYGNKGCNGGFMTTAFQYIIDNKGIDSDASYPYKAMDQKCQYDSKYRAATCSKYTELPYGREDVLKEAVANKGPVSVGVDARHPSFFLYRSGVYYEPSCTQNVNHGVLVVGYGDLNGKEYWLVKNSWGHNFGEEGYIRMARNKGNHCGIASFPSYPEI

Compound | IC50 (human cathepsin S) | IC50 (human cathepsin B) | IC50 (human cathepsin L) | IC50 (human cathepsin K)
N#CC1(NC(=O)C2(NC(=O)c3cc4ccc(-c5ccc(N6CCOCC6=O)cc5)cc4o3)CCC(F)(F)CC2)CC1 [Example 28, N-(1-((1-cyanocyclopropyl)carbamoyl)-4,4-difluorocyclohexyl)-6-(4-(3-oxomorpholino)phenyl)benzofuran-2-carboxamide] | 1900 nM | 2200 nM | > 10000 nM | 1.2 nM
N#CC1(NC(=O)C2(NC(=O)c3cc4ccc(-c5ccc(-n6cn[nH]c6=O)cc5)cc4o3)CCC(F)(F)CC2)CC1 [Example 85] | 1500 nM | 2200 nM | > 10000 nM | 1.26 nM
N#CC1(NC(=O)C2(NC(=O)c3cc4ccc(-c5ccc6c(c5)OCCO6)cc4o3)CCC(F)(F)CC2)CC1 [Example 33, N-(1-((1-cyanocyclopropyl)carbamoyl)-4,4-difluorocyclohexyl)-6-(2,3-dihydrobenzo[b][1,4]dioxin-6-yl)benzofuran-2-carboxamide] | > 10000 nM | 2300 nM | > 10000 nM | 2.95 nM
N#CC1(NC(=O)C2(NC(=O)c3cc4ccc(-c5ccc(C6CCS(=O)(=O)CC6)cc5)cc4o3)CCC(F)(F)CC2)CC1 [Example 86] | 4700 nM | 6800 nM | > 10000 nM | 1.1 nM
N#CC1(NC(=O)C2(NC(=O)c3cc4ccc(-c5ccc(C6(O)COC6)nc5)cc4o3)CCCCC2)CC1 [Example 77] | 1050 nM | 178 nM | ≥ 10000 nM | 0.67 nM
N#CC1(NC(=O)C2(NC(=O)c3cc4ccc(-c5ccc(C6(O)COC6)cc5)cc4o3)CCCCCC2)CC1 [Example 79] | 740 nM | 330 nM | 7100 nM | 0.72 nM
CS(=O)(=O)COc1ccc(-c2ccc3cc(C(=O)NC4(C(=O)NC5(C#N)CC5)CCC(F)(F)CC4)oc3c2)cc1 [Example 98] | – | – | – | 1.02 nM
CS(=O)(=O)c1ccc(-c2ccc3cc(C(=O)NC4(C(=O)NC5(C#N)CC5)CCCCC4)oc3n2)cc1 [Example 82] | 1500 nM | 200 nM | > 10000 nM | 2.7 nM
N#CC1(NC(=O)C2(NC(=O)c3cc4ccc(-c5csc(N6CCCC6=O)n5)cc4o3)CCCCC2)CC1 [Example 63] | > 10000 nM | 1200 nM | > 10000 nM | 1.6 nM
COc1cc(-c2ccc3cc(C(=O)NC4(C(=O)NC5(C#N)CC5)CCC(F)(F)CC4)oc3c2)ccc1OC(F)F [Example 94] | 6500 nM | 4000 nM | > 10000 nM | 2.4 nM
CS(=O)(=O)c1ccc(-c2ccc3cc(C(=O)NC4(C(=O)NC5(C#N)CC5)CCCCC4)oc3c2)c(F)c1 [Example 5, N-(1-((1-cyanocyclopropyl)carbamoyl)cyclohexyl)-6-(2-fluoro-4-(methylsulfonyl)phenyl)benzofuran-2-carboxamide] | 1600 nM | 78 nM | > 10000 nM | 1.1 nM
N#CC1(NC(=O)C2(NC(=O)c3cc4ccc(-c5ccc(C6(N)COC6)cc5)cc4o3)CCC(F)(F)CC2)CC1 [Example 14, 6-(4-(3-aminooxetan-3-yl)phenyl)-N-(1-((1-cyanocyclopropyl)carbamoyl)-4,4-difluorocyclohexyl)benzofuran-2-carboxamide] | 260 nM | 86 nM | 3100 nM | 0.38 nM
N#CC1(NC(=O)C2(NC(=O)c3cc4ccc(-c5ccc6ncoc6c5)cc4o3)CCC(F)(F)CC2)CC1 [Example 32, 6-(benzo[d]oxazol-6-yl)-N-(1-((1-cyanocyclopropyl)carbamoyl)-4,4-difluorocyclohexyl)benzofuran-2-carboxamide] | 3300 nM | 7600 nM | > 10000 nM | 1.9 nM
N#CC1(NC(=O)C2(NC(=O)c3cc4ccc(-c5csc(N6CCS(=O)(=O)CC6)n5)cc4o3)CCCCC2)CC1 [Example 67] | 990 nM | 540 nM | > 10000 nM | 0.64 nM
COc1cc(-c2ccc3cc(C(=O)NC4(C(=O)NC5(C#N)CC5)CCC(F)(F)CC4)oc3c2)ccc1OCS(C)(=O)=O [Example 101] | – | – | – | 0.88 nM
CS(=O)(=O)c1ccc(-c2ccc3cc(C(=O)NC4(C(=O)NC5(C#N)CC5)CCCC4)oc3c2)cc1 [Example 70] | 5060 nM | 530 nM | > 10000 nM | 8.6 nM

Compound | IC50 (human cathepsin S) | IC50 (human cathepsin B) | IC50 (human cathepsin L) | IC50 (human cathepsin K)
COc1ccc(-c2ccc3cc(C(=O)NC4(C(=O)NC5(C#N)CC5)CCC(F)(F)CC4)oc3c2)cc1OC [Example 4, N-(1-((1-cyanocyclopropyl)carbamoyl)-4,4-difluorocyclohexyl)-6-(3,4-dimethoxyphenyl)benzofuran-2-carboxamide] | > 10000 nM | 2500 nM | > 10000 nM | 2.1 nM
N#CC1(NC(=O)C2(NC(=O)c3cc4ccc(-c5ccc(C6(O)CCS(=O)(=O)CC6)cc5)cc4o3)CCCCC2)CC1 [Example 76] | 340 nM | 120 nM | > 10000 nM | 0.55 nM
N#CC1(NC(=O)C2(NC(=O)c3cc4ccc(-c5ccc(S(=O)(=O)N6CCOCC6)cc5)cc4o3)CCC(F)(F)CC2)CC1 [Example 47, N-(1-((1-cyanocyclopropyl)carbamoyl)-4,4-difluorocyclohexyl)-6-(4-(morpholinosulfonyl)phenyl)benzofuran-2-carboxamide] | > 10000 nM | > 10000 nM | > 10000 nM | 1.01 nM
COc1cc(-c2ccc3cc(C(=O)NC4(C(=O)NC5(C#N)CC5)CCC(F)(F)CC4)oc3c2)ccc1-n1cncn1 [Example 39, N-(1-((1-cyanocyclopropyl)carbamoyl)-4,4-difluorocyclohexyl)-6-(3-methoxy-4-(1H-1,2,4-triazol-1-yl)phenyl)benzofuran-2-carboxamide] | > 10000 nM | 409 nM | > 10000 nM | 0.31 nM
N#CC1(NC(=O)C2(NC(=O)c3cc4ccc(-c5csc(N6CCNC6=O)n5)cc4o3)CCCCC2)CC1 [Example 65] | > 10000 nM | 697 nM | > 10000 nM | 1.3 nM
N#CC1(NC(=O)C2(NC(=O)c3cc4ccc(-c5ccc6c(c5)OCO6)cc4o3)CCC(F)(F)CC2)CC1 [Example 91] | > 10000 nM | 2500 nM | > 10000 nM | 1.3 nM
N#CC1(NC(=O)C2(NC(=O)c3cc4ccc(-c5csc(C6(O)COC6)n5)cc4o3)CCCCC2)CC1 [Example 78] | 2070 nM | 282 nM | ≥ 10000 nM | 0.95 nM
CC1(COc2ccc(-c3ccc4cc(C(=O)NC5(C(=O)NC6(C#N)CC6)CCC(F)(F)CC5)oc4c3)cc2)COC1 [Example 93] | > 10000 nM | 4300 nM | > 10000 nM | 2.96 nM
N#CC1(NC(=O)C2(NC(=O)c3cc4ccc(-c5ccc(C6(F)CCS(=O)(=O)CC6)cc5)cc4o3)CCCCC2)CC1 [Example 83] | > 10000 nM | 1600 nM | > 10000 nM | 2.2 nM
N#CC1(NC(=O)C2(NC(=O)c3cc4ccc(-c5ccc(N6CCNC6=O)cc5)cc4o3)CCC(F)(F)CC2)CC1 [Example 88] | 2900 nM | 800 nM | > 10000 nM | 5.4 nM
CS(=O)(=O)Nc1ccc(-c2ccc3cc(C(=O)NC4(C(=O)NC5(C#N)CC5)CCC(F)(F)CC4)oc3c2)cc1 [Example 96] | 2150 nM | 711 nM | > 10000 nM | 0.53 nM
N#CC1(NC(=O)C2(NC(=O)c3cc4ccc(-c5ccc(C6(O)CCC6)cc5)cc4o3)CCCCC2)CC1 [Example 9, N-(1-((1-cyanocyclopropyl)carbamoyl)cyclohexyl)-6-(4-(1-hydroxycyclobutyl)phenyl)benzofuran-2-carboxamide] | 3500 nM | 410 nM | > 10000 nM | 2.7 nM
CS(=O)(=O)c1nc(-c2ccc3cc(C(=O)NC4(C(=O)NC5(C#N)CC5)CCCCC4)oc3c2)cs1 [Example 66] | 969 nM | 540 nM | > 10000 nM | 0.81 nM
CS(=O)(=O)c1ccc(-c2ccc3cc(C(=O)NC4(C(=O)NC5(C#N)CC5)CCC(F)(F)CC4)oc3c2)cc1 [Example 2, N-(1-((1-cyanocyclopropyl)carbamoyl)-4,4-difluorocyclohexyl)-6-(4-(methylsulfonyl)phenyl)benzofuran-2-carboxamide] | 4000 nM | 880 nM | > 10000 nM | 1.37 nM
COc1cc(-c2ccc3cc(C(=O)NC4(C(=O)NC5(C#N)CC5)CCC(F)(F)CC4)oc3c2)ccc1CS(C)(=O)=O [Example 100] | – | – | – | 0.56 nM
